Where two headings read alike, the source gives them in different places.
Legend:
[1] = test system: WEEV replicon; test: microbe, parasite or virus in culture; format: cell-based, Western equine encephalitis virus
[2] = test system: WEEV; format: cell-based, Western equine encephalitis virus
[3] = test system: NSV; format: cell-based, neuroadapted Sindbis virus
[4] = test system: BSR-T7/C3 clone
[5] = test system: vaccine strain of Venezuelan equine encephalitis virus (VEEV); conditions: mouse, in vivo; cited from earlier work
[6] = test system: wild-type VEEV; conditions: in vivo; cited from earlier work
[7] = Western equine encephalitis virus, read-out: Activity IC50 (μM)
[8] = Western equine encephalitis virus
[9] = Western equine encephalitis virus; read-out: 50 μM (% control) Luc

Row | Compound | IC50 [1, 8] [µM] | activity at 50 µM [1, 9] [%] | also measured
1 | O=C(NCc1ccccc1)C1CCN(C(=O)c2cc3ccccc3n2Cc2ccc(Cl)cc2)CC1 [CCG 102516, N-benzyl-1-(1-(4-chlorobenzyl)-1H-indole-2-carbonyl)piperidine-4-carboxamide] | – | – | IC50 [1, 7]: 18.6 µM; activity at 2 µM ([1]; Western equine encephalitis virus; read-out: Activity (% control LUC) 2 μM): 88%; activity at 10 µM ([1]; Western equine encephalitis virus; read-out: Activity (% control LUC) 10 μM): 76.9%; activity at 50 µM ([1]; Western equine encephalitis virus; read-out: Activity (% control LUC) 50 μM): 59.7%; WEEV titers (virion production, plaque assay) [2]: significantly reduced; NSV titers (virion production, plaque assay) [3]: significantly reduced
2 | C[C@@H](NC(=O)C1CCN(C(=O)c2cc3ccccc3n2Cc2ccc(Cl)cc2)CC1)c1ccccc1 [CCG 203926, (R)-1-(1-(4-chlorobenzyl)-1H-indole-2-carbonyl)-N-(1-phenylethyl)piperidine-4-carboxamide] | – | – | activity in the replicon inhibition assay (in words) [1]: active; activity at 2 µM ([1]; Western equine encephalitis virus, read-out: Activity (% control LUC) 2 μM): 100%; activity at 10 µM ([1]; Western equine encephalitis virus, read-out: Activity (% control LUC) 10 μM): 55%; activity at 50 µM ([1]; Western equine encephalitis virus, read-out: Activity (% control LUC) 50 μM): 17%; IC50 [1, 7]: 8.7 µM; WEEV titers (virion production, plaque assay) [2]: significantly reduced; NSV titers (virion production, plaque assay) [3]: significantly reduced; cytotoxicity [4]: relatively low cytotoxicity
3 | COc1cccc(CCNC(=O)C2CCN(C(=O)c3cc4ccccc4n3Cc3ccc(Cl)cc3)CC2)c1 [CCG 206395, 1-(1-(4-chlorobenzyl)-1H-indole-2-carbonyl)-N-(3-methoxyphenethyl)piperidine-4-carboxamide] | 11.7 | 38.4 | –
4 | O=C(NCCc1ccc(F)cc1)C1CCN(C(=O)c2cc3ccccc3n2Cc2ccc(Cl)cc2)CC1 [CCG 206396, 1-(1-(4-chlorobenzyl)-1H-indole-2-carbonyl)-N-(4-fluorophenethyl)piperidine-4-carboxamide] | 10.6 | 34.9 | –
5 | O=C(NCCc1ccccc1)C1CCN(C(=O)c2cc3ccccc3n2Cc2ccc(Cl)cc2)CC1 [CCG 206397, 1-(1-(4-chlorobenzyl)-1H-indole-2-carbonyl)-N-phenethylpiperidine-4-carboxamide] | 15.2 | 40.2 | –
6 | COc1ccc(CCNC(=O)C2CCN(C(=O)c3cc4ccccc4n3Cc3ccc(Cl)cc3)CC2)cc1 [CCG 206398, 1-(1-(4-chlorobenzyl)-1H-indole-2-carbonyl)-N-(4-methoxyphenethyl)piperidine-4-carboxamide] | 7.1 | 12.9 | –
7 | O=C(NCc1cccc(F)c1)C1CCN(C(=O)c2cc3ccccc3n2Cc2ccc(Cl)cc2)CC1 [CCG 206399, 1-(1-(4-chlorobenzyl)-1H-indole-2-carbonyl)-N-(3-fluorobenzyl)piperidine-4-carboxamide] | – | 50.4 | –
8 | O=C(NCCc1ccc(Cl)cc1)C1CCN(C(=O)c2cc3ccccc3n2Cc2ccc(Cl)cc2)CC1 [CCG 206400, 1-(1-(4-chlorobenzyl)-1H-indole-2-carbonyl)-N-(4-chlorophenethyl)piperidine-4-carboxamide] | 7.45 | 28.6 | –
9 | C#CCn1c(C(=O)N2CCC(C(=O)N(C)Cc3ccccc3)CC2)cc2ccccc21 [CCG 206401, N-benzyl-N-methyl-1-(1-(prop-2-yn-1-yl)-1H-indole-2-carbonyl)piperidine-4-carboxamide] | – | 57.4 | –
10 | Cc1cccc2cc(C(=O)N3CCC(C(=O)NCc4ccccc4)CC3)n(Cc3ccc(Cl)cc3)c12 [CCG 206447, N-benzyl-1-(1-(4-chlorobenzyl)-7-methyl-1H-indole-2-carbonyl)piperidine-4-carboxamide] | 60.7 | 46.8 | –
11 | CC(C)c1ccc(CCNC(=O)C2CCN(C(=O)c3cc4ccccc4n3Cc3ccc(Cl)cc3)CC2)cc1 [CCG 206461, 1-(1-(4-chlorobenzyl)-1H-indole-2-carbonyl)-N-(4-isopropylphenethyl)piperidine-4-carboxamide] | 2.9 | 32.6 | –
12 | O=C(c1cc2ccccc2n1Cc1ccc(Cl)cc1)N1CCC2C(=O)N(Cc3ccccc3)CC2C1 (stereo not drawn) [CCG 206485, 2-benzyl-5-(1-(4-chlorobenzyl)-1H-indole-2-carbonyl)octahydro-1H-pyrrolo[3,4-c]pyridin-1-one] | 17.1 | 39.4 | –
13 | Cc1ccc(CCNCC2CCN(C(=O)c3cc4ccccc4n3Cc3ccc(F)cc3)CC2)cc1 [CCG 206486, (1-(4-fluorobenzyl)-1H-indol-2-yl)(4-(((4-methylphenethyl)amino)methyl)piperidin-1-yl)methanone] | 6.1 | 0 | –
14 | C[C@@H](NCC1CCN(C(=O)c2cc3ccccc3n2Cc2ccc(F)cc2)CC1)c1ccccc1 [CCG 206499, (R)-(1-(4-fluorobenzyl)-1H-indol-2-yl)(4-(((1-phenylethyl)amino)methyl)piperidin-1-yl)methanone] | – | 0 | –
15 | O=C(c1cc2ccccc2n1Cc1ccc(F)cc1)N1CCC(CNCc2ccccc2)CC1 [CCG 206500, (4-((benzylamino)methyl)piperidin-1-yl)(1-(4-fluorobenzyl)-1H-indol-2-yl)methanone] | 6.5 | 0 | –
16 | C[C@H](NCC1CCN(C(=O)c2cc3ccccc3n2Cc2ccc(F)cc2)CC1)c1ccccc1 [CCG 206501, (S)-(1-(4-fluorobenzyl)-1H-indol-2-yl)(4-(((1-phenylethyl)amino)methyl)piperidin-1-yl)methanone] | 8.9 | 0 | –
17 | O=C(c1cc2ccccc2n1Cc1ccc(F)cc1)N1CCC(CN2CCOCC2)CC1 [CCG 206502, (1-(4-fluorobenzyl)-1H-indol-2-yl)(4-(morpholinomethyl)piperidin-1-yl)methanone] | 40.6 | 39.1 | –
18 | CN(Cc1ccccc1)CC1CCN(C(=O)c2cc3ccccc3n2Cc2ccc(F)cc2)CC1 [CCG 206503, (4-((benzyl(methyl)amino)methyl)piperidin-1-yl)(1-(4-fluorobenzyl)-1H-indol-2-yl)methanone] | 25.1 | 28.2 | –
19 | CC(NC(=O)C1CCN(C(=O)c2cc3ccccc3n2Cc2ccc(Cl)cc2)CC1)C1Cc2ccccc2C1 (stereo not drawn) [CCG 206549, 1-(1-(4-chlorobenzyl)-1H-indole-2-carbonyl)-N-(1-(2,3-dihydro-1H-inden-2-yl)ethyl)piperidine-4-carboxamide] | 1.7 | 36.9 | –
20 | O=C(NCC1CCc2ccccc21)C1CCN(C(=O)c2cc3ccccc3n2Cc2ccc(Cl)cc2)CC1 (stereo not drawn) [CCG 206550, 1-(1-(4-chlorobenzyl)-1H-indole-2-carbonyl)-N-((2,3-dihydro-1H-inden-1-yl)methyl)piperidine-4-carboxamide] | 7.1 | 47.4 | –
21 | O=C(NCCc1ccncc1)C1CCN(C(=O)c2nc3ccccc3n2Cc2ccc(Cl)cc2)CC1 [CCG 206565, 1-(1-(4-chlorobenzyl)-1H-benzo[d]imidazole-2-carbonyl)-N-(2-(pyridin-4-yl)ethyl)piperidine-4-carboxamide] | 4.07 | 12 | –
22 | CC(CNC(=O)C1CCN(C(=O)c2cc3ccccc3n2Cc2ccc(Cl)cc2)CC1)c1ccncc1 (stereo not drawn) [CCG 206580, 1-(1-(4-chlorobenzyl)-1H-indole-2-carbonyl)-N-(2-(pyridin-4-yl)propyl)piperidine-4-carboxamide] | 1.66 | 13.4 | –
23 | O=C(NCC1COc2cnccc21)C1CCN(C(=O)c2cc3ccccc3n2Cc2ccc(Cl)cc2)CC1 (stereo not drawn) [CCG 206581, 1-(1-(4-chlorobenzyl)-1H-indole-2-carbonyl)-N-((2,3-dihydrofuro[2,3-c]pyridin-3-yl)methyl)piperidine-4-carboxamide] | 3.58 | 8.6 | –
24 | O=C(NCc1ccccc1)C1CCN(C(=O)c2nccn2Cc2ccc(Cl)cc2)CC1 [CCG 206586, N-benzyl-1-(1-(4-chlorobenzyl)-1H-imidazole-2-carbonyl)piperidine-4-carboxamide] | – | 69.5 | –
25 | (−)-carbodine | – | – | disease outcome [5]: improved outcome; lowering of peak CNS viral titers [5]: half-log; benefit following wild-type VEEV challenge [6]: no benefit

Source: patent publication US8846684B2 (priority 2011, dated 2014)
